Results taken from US20110112187A1, “Use Of Tranilast And Derivatives Thereof For The Therapy Of Neurological Conditions” (priority 2007, published 2011).

Key:
neural stem cells = assay: In vitro differentiation assay on adult neuronal stem cells (beta-III-tubulin promoter dual luciferase reporter); assay type: cell-based, rat; settings: 48 hrs; concentration ranges within 0.01 to 100 μM; versus sham treated cells
Description: The neuroregenerative effect of the compounds according to the present invention can be assayed in vitro by measuring their stimulation of the differentiation of neuronal stem cells. Therefore, adult neuronal stem cells have to be isolated and subsequently cultivated in a suitable culture medium. After several passages in vitro the stem cells have to be co-transfected with a DNA construct coding for two discriminable reporter proteins one of them under the control of a constitutive promoter and the other under the control of a beta-III-tubulin promoter. The beta-III-tubulin promoter is induced during the process of neuronal stem cell differentiation; therefore the reporter protein under the control of this promoter serves as a marker for the stem cell differentiation in such an in vitro dual reporter assay (Schneider et al., J Clin Investigation 2005; 115:2083-2098). The person skilled in the art knows several suitable constitutive promoters such as the SV40-promoter, the TK-promoter, or the CMV-promoter. As discriminable reporter proteins for such a dual reporter assay one can use discriminable luciferases such as firefly luciferase and Renilla luciferase. The transfected cells have to be incubated with the test compound and with positive and negative controls for normalization and background correction. As a positive control compound one can use retinoic acid (Guan et al., Cell Tissue Res. 2001; 305:171-176; Jacobs et al., Proc. Natl. Acad. Sci. USA 2006; 103:3902-3907), a suitable negative control is the sham treatment of the cells. The neroregenerative activity of the test compound is determined as the ratio of the signal of the beta-III-tubulin promoter controlled reporter versus the signal of the constitutively expressed reporter and is expressed as fold from the control. This assay is suitable to assess the neuroregenerative activity of tranilast and derivatives thereof, but also can be used to screen for other potential neuroregenerative compounds. Preferably, such a screening can be used to test compounds which are already known to be suitable as a medicament in terms of its toxicology, bioavailability, solubility, stability etc.
Neural stem cells were isolated from the subventricular zone of 4 week-old male Wistar rats as described (Maurer et al, Proteome Sci. 2003; 1:4). Cells were cultivated in Neurobasal medium (Invitrogen) supplemented with B27 (Invitrogen), 2 mM L-glutamine, 100 units/ml penicillin, 100 units/ml streptomycin, 20 ng/ml […] growth factor (EGF), 20 ng/ml fibroblast growth factor-2 (FGF-2), and […] heparin. Once a week the neural stem cells were passaged and experiments were performed after 4 weeks in vitro. For DNA transfection, the cells were dissociated and plated on poly-L-ornithin/laminin-coated 96-well plates at a density of 50.000 cells/well. Cotransfection with the pGL3-p-βIII-tubulin vector (100 ng/well) and the pRL SV40 vector (100 ng/well) was carried out according to the FuGene6 Transfection protocol (Roche). The pRL SV40 vector (Promega) served as an internal control vector.
To amplify the class III β-tubulin gene promoter (fragment −450-+54), rat genomic DNA was used as a template for PCR (Dennis et al., Gene 2002; 294:269-277). The amplified fragment was inserted into the Mlu I/Xho I site of the pGL3-Basic firefly luciferase reporter vector (Promega) to generate the pGL3-p-βIII-tubulin experimental vector.
After overnight incubation, the plate was decanted and given in 8-fold replicates fresh medium containing tranilast (Sigma) or vehicle. As a positive control for in vitro differentiation, stem cells were treated by adding 1 μM retinoic acid (Sigma) to the medium missing the mitogens.
After 48 hrs, the cells were harvested to prepare the cellular extracts for luciferase assay following the directions of the manufacturer (Promega). […]

SH-SY5Y neuronal cells [1] = assay: In vitro anti-apoptosis assay (Caspase-Glo 3/7, staurosporine induced apoptosis); assay type: cell-based, human; settings: for anti-apoptotic effect: reduction of the staurosporine induced apoptosis: co-incubation with staurosporine
Experimental: Neuroprotection is attainable via the inhibition of apoptosis of affected neurons. The anti-apoptotic effect of tranilast and its derivatives can be assayed in vitro by measuring the caspase-3 and caspase-7 activities. These members of the cysteine aspartic acid-specific protease (caspase) family play key effector roles in apoptosis in mammalian cells. Cortical neurons have to be isolated and subsequently cultivated in a suitable culture medium. The cells have to be incubated with the test compound in the presence of an apoptotic substance such as staurosporine. Parallel approaches with staurosporine alone and sham treatment of the cells serve as […] controls. The assay allows evaluating whether the test compound can compensate either completely or partially for the apoptotic effect of staurosporine. This assay is suitable to assess the neuroprotective activity of tranilast and derivatives thereof, but also can be used to screen for other potential neuroprotective compounds. Preferably, such a screening can be used to test compounds which are already known to be suitable as a medicament in terms of its toxicology, bioavailability, solubility, stability etc.
The neuroprotective effect of compounds can be assayed in vitro by measuring caspase-3 and caspase-7 activities. These members of the cysteine aspartic acid-specific protease (caspase) family play a key effector role in apoptosis in mammalian cells.
The human neuroblastoma cell-line SH-SY5Y (American Type Culture Collection) maintained in DMEM with high glucose supplemented with 20% FBS was used for the apoptosis assay. Alternatively one can analyse the apoptosis of primary cortical neurons which can be isolated from E18 rats and subsequently cultivated in suitable culture medium. 2.5×10^4 SH-SY5Y cells were seeded in 96-well plates and stimulated 24 h later with tranilast or vehicle in the presence of the apoptosis inducing compound staurosporine (0.5 μM, Calbiochem). After 5 h incubation at 37° C., caspase-Glo 3/7 reagent (Promega) containing luciferase and luminogenic substrate was added to the cells. The cleavage of the substrate by caspase-3 and caspase-7 was detected 30 min later using a luminometer (Berthold Technologies, Mithras LB 940). The Luminescence which is proportional to the amount of caspase activity serves as a measure for the apoptosis of the treated neurons. Tranilast was tested in a range from 0.8 μM to 100 μM final concentration.
Analogously to Example 3, various derivatives of tranilast (N-(3′,4′-methylenedioxycinnamoyl)-anthranilic acid (FIG. 2a (ChemBridge Corporation)), 2-(3′,4′-dimethoxycinnamoylamino)-toluene (FIG. 2b (ChemBridge Corporation)), N-cinnamoyl-anthranilic acid (FIG. 2c (ChemBridge Corporation)), and 2-(3′,4′-dimethoxycinnamoylamino)-anisole (FIG. 2d (Ambinter SARL))) have been analysed for their anti-apoptotic activity. The SH-SY5Y cells have been incubated with these derivatives (1 μM) either alone or in the presence of staurosporine (0.5 μM). Incubation with staurosporine (0.5 μM) alone served as positive control and incubation with vehicle served as negative control. In the case of 3-(4′-chlorocinnamoylamino)-anisole (FIG. 2e (Sigma)) the SH-SY5Y cells have been incubated with this derivative (1 μM) either alone or in the presence of staurosporine […]. Accordingly, incubation with staurosporine […] alone served as positive control and incubation with vehicle served as negative control. The degree of apoptosis relative to the staurosporine control is shown in FIG. 4 a (vehicle (sham): 9% staurosporine (SP): 100%; tranilast: 8%; tranilast plus staurosporine: 75%; derivative A: 3%; derivative A plus staurosporine: 27%; derivative B: 7%; derivative B plus staurosporine: 79%; derivative C: 2%; derivative C plus staurosporine: 20%; derivative D: 7%; derivative D plus staurosporine: 80%) and FIG. 4 b (vehicle (sham): 13%; staurosporine: 100%; derivative E: 6%; derivative E plus staurosporine: 25%).

SH-SY5Y neuronal cells [2] = assay: In vitro viability assay (constitutive Renilla luciferase reporter); assay type: cell-based, human; settings: 0.8 μM to 50 μM, 5 h
Experimental: The viability assay allows for further assessment of test compounds regarding their effect on cells such as neurons. Therefore, a stably transfected cell line (e.g. SH-SY5Y cells) with a reporter construct (e.g. a luciferase construct) has to be incubated with the test compound and in parallel with positive and negative controls (e.g. staurosporine and sham, respectively). Subsequently, the signal generated by the reporter construct serves as a readout for the viability of the cells in the presence of the test compound. The assay enables the evaluation of potential neurotoxic effects of the test compound itself. […]
SH-SY5Y neuronal cells stably transfected with a Renilla luciferase construct under the SV40 promoter were seeded in 96-well plates at a density of 2.5×10^4 cells per well. […] The Renilla luciferase activity was measured 5 h later using a luminometer (Berthold Technologies, Mithras LB 940). […]
Analogously to Example 5, various derivatives of tranilast (N-(3′,4′-methylenedioxycinnamoyl)-anthranilic acid (FIG. 2a (ChemBridge Corporation)), 2-(3′,4′-dimethoxycinnamoylamino)-toluene (FIG. 2b (ChemBridge Corporation)), N-cinnamoyl-anthranilic acid (FIG. 2c (ChemBridge Corporation)), and 2-(3′,4′-dimethoxycinnamoylamino)-anisole (FIG. 2d (Ambinter SARL))) have been analysed for their effect on the viability of neuronal cells. […]

[3] = compound 1 μM alone, FIG. 4a (control staurosporine 0.5 μM)
[4] = compound 1 μM plus staurosporine 0.5 μM, FIG. 4a

## O=C(C=Cc1ccc2c(c1)OCO2)Nc1ccccc1C(=O)O [derivative A, N-(3′,4′-methylenedioxycinnamoyl)-anthranilic acid]
Neural stem cells
  differentiation of neural stem cells to neurons (relative induction of the class III β-tubulin gene promoter controlled luciferase signal): significantly stimulates the differentiation of neural stem cells to neurons in a dose dependent manner
SH-SY5Y neuronal cells [1]; [3]
  degree of apoptosis relative to the staurosporine control: 3%
SH-SY5Y neuronal cells [1]; [4]
  degree of apoptosis relative to the staurosporine control: 27%

## COc1ccc(C=CC(=O)Nc2ccccc2C)cc1OC [derivative B, 2-(3′,4′-dimethoxycinnamoylamino)-toluene]
Neural stem cells
  differentiation of neural stem cells to neurons (relative induction of the class III β-tubulin gene promoter controlled luciferase signal): significantly stimulates the differentiation of neural stem cells to neurons in a dose dependent manner
SH-SY5Y neuronal cells [1]; [3]
  degree of apoptosis relative to the staurosporine control: 7%
SH-SY5Y neuronal cells [1]; [4]
  degree of apoptosis relative to the staurosporine control: 79%

## O=C(C=Cc1ccccc1)Nc1ccccc1C(=O)O [derivative C, N-cinnamoyl-anthranilic acid]
Neural stem cells
  differentiation of neural stem cells to neurons (relative induction of the class III β-tubulin gene promoter controlled luciferase signal): significantly stimulates the differentiation of neural stem cells to neurons in a dose dependent manner
SH-SY5Y neuronal cells [1]; [3]
  degree of apoptosis relative to the staurosporine control: 2%
SH-SY5Y neuronal cells [1]; [4]
  degree of apoptosis relative to the staurosporine control: 20%

## COc1ccccc1NC(=O)C=Cc1ccc(OC)c(OC)c1 [derivative D, 2-(3′,4′-dimethoxycinnamoylamino)-anisole]
Neural stem cells
  differentiation of neural stem cells to neurons (relative induction of the class III β-tubulin gene promoter controlled luciferase signal): significantly stimulates the differentiation of neural stem cells to neurons in a dose dependent manner
SH-SY5Y neuronal cells [1]; [3]
  degree of apoptosis relative to the staurosporine control: 7%
SH-SY5Y neuronal cells [1]; [4]
  degree of apoptosis relative to the staurosporine control: 80%

## COc1cccc(NC(=O)C=Cc2ccc(Cl)cc2)c1 [derivative E, 3-(4′-chlorocinnamoylamino)-anisole]
Neural stem cells
  differentiation of neural stem cells to neurons (relative induction of the class III β-tubulin gene promoter controlled luciferase signal): significantly stimulates the differentiation of neural stem cells to neurons in a dose dependent manner
SH-SY5Y neuronal cells [1]
  anti-apoptotic effect: reduction of the staurosporine induced apoptosis: significant reduction of the staurosporine induced apoptosis
SH-SY5Y neuronal cells [1]; compound 1 μM alone, FIG. 4b (control staurosporine 0.1 μM)
  degree of apoptosis relative to the staurosporine control: 6%
SH-SY5Y neuronal cells [1]; compound 1 μM plus staurosporine (1 μM printed, 0.1 μM elsewhere in the source), FIG. 4b
  degree of apoptosis relative to the staurosporine control: 25%

## CN[C@@H]1C[C@H]2O[C@@](C)([C@@H]1OC)n1c3ccccc3c3c4c(c5c6ccccc6n2c5c31)C(=O)NC4 [staurosporine]
SH-SY5Y neuronal cells [1]; staurosporine 0.1 μM alone (positive control, reference), FIG. 4b
  degree of apoptosis relative to the staurosporine control: 100%
SH-SY5Y neuronal cells [1]; staurosporine 0.5 μM alone (positive control, reference)
  apoptosis (caspase-3/7 luminescence) relative to staurosporine: 100%

## COc1ccc(/C=C/C(=O)Nc2ccccc2C(=O)O)cc1OC [tranilast, 2-((3-(3,4-dimethoxyphenyl)-1-oxo-2-propenyl)amino)benzoic acid]
Neural stem cells
  differentiation of neural stem cells to neurons (relative induction of the class III β-tubulin gene promoter controlled luciferase signal): significantly stimulates the differentiation of neural stem cells to neurons
SH-SY5Y neuronal cells [1]; 0.8 μM tranilast plus 0.5 μM staurosporine, 5 h
  apoptosis (caspase-3/7 luminescence) relative to staurosporine: 84%
SH-SY5Y neuronal cells [1]; 1.6 μM tranilast plus 0.5 μM staurosporine, 5 h
  apoptosis (caspase-3/7 luminescence) relative to staurosporine: 74%
SH-SY5Y neuronal cells [1]; 3.1 μM tranilast plus 0.5 μM staurosporine, 5 h
  apoptosis (caspase-3/7 luminescence) relative to staurosporine: 76%
SH-SY5Y neuronal cells [1]; 6.3 μM tranilast plus 0.5 μM staurosporine, 5 h
  apoptosis (caspase-3/7 luminescence) relative to staurosporine: 74%
SH-SY5Y neuronal cells [1]; 12.5 μM tranilast plus 0.5 μM staurosporine, 5 h
  apoptosis (caspase-3/7 luminescence) relative to staurosporine: 58%
SH-SY5Y neuronal cells [1]; 25 μM tranilast plus 0.5 μM staurosporine, 5 h
  apoptosis (caspase-3/7 luminescence) relative to staurosporine: 46%
SH-SY5Y neuronal cells [1]; 50 μM tranilast plus 0.5 μM staurosporine, 5 h
  apoptosis (caspase-3/7 luminescence) relative to staurosporine: 30%
SH-SY5Y neuronal cells [1]; 100 μM tranilast plus 0.5 μM staurosporine, 5 h
  apoptosis (caspase-3/7 luminescence) relative to staurosporine: 15%
SH-SY5Y neuronal cells [1]
  anti-apoptotic effect: reduction of the staurosporine induced apoptosis: significant reduction of the staurosporine induced apoptosis
SH-SY5Y neuronal cells [1]; [3]
  degree of apoptosis relative to the staurosporine control: 8%
SH-SY5Y neuronal cells [1]; [4]
  degree of apoptosis relative to the staurosporine control: 75%
SH-SY5Y neuronal cells [2]
  effect on the viability of neuronal cells (Renilla luciferase activity): did not show any significant effect on the viability of the neuronal cells
